Experimental data: patent US20090318509A1, “Oxime Derivatives as Inhibitors of Macrophage Migration Inhibitory Factor” (priority 2006, published 2009)
Entries after “also recorded” stand apart in the source; their conditions may differ. Read-outs that look alike come from different tables or passages of the source. One block for each compound: values may come before it.

Key:
MIF [1] = molecular target: T1, MIF (Homo sapiens, UniProt P14174); experiment: MIF dopachrome tautomerase activity inhibition; type: biochemical; set-up: 1 μL of MIF solution (800-900 ng/mL)
T1 sequence (P14174 2-115 limits assumed): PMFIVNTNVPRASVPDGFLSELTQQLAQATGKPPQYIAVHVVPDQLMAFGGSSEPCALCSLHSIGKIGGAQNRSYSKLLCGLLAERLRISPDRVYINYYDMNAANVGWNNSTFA
Description: MIF tautomerase activity was measured by UV-Visible recording spectrophotometry (SHIMADZU, UV 1600U). A fresh stock solution of L-dopachrome methyl ester was prepared at 2.4 mM through oxidation of L3,4-dihydroxyphenylalanine methyl ester with sodium periodate. 1 μL of MIF solution (800-900 ng/mL) and 1 μL of a DMSO solution with various concentrations of the enzymatic inhibitor were added into a plastic cuvette (10 mm, 1.5 mL) containing 0.7 mL assay buffer (1× potassium phosphate, pH 7.2). The L-dopachrome methyl ester solution (0.3 mL) was added to the assay buffer mixture.

endotoxemia and sepsis = details: intraperitoneal, 40 mg/kg; Al-Abed et al., 2005; cited from earlier work
[2] = system: TNF release by LPS-treated macrophages; details: in vitro; cited from earlier work
antibacterial effect = details: preliminary studies
[3] = preliminary acute toxicity screening; type: in vivo
Text: Design of Cyc-Oxi-11. ISO-1, the pharmacological inhibitor of MIF, neutralizes exogenous and endogenous MIF in in vitro and in vivo models. This indicates the successful application of chemical approaches to antagonize MIF biological activities. Although ISO-1 has significant anti-inflammatory activity, development of better inhibitors was desired. […] Representative structures of the novel oxime scaffold are presented in Table I, with their IC50 of inhibiting MIF dopachrome tautomerase activity.

[4] = system: TNF release by LPS-stimulated human macrophages; experiment: TNF release from LPS-stimulated macrophages; type: cell-based; details: FIG. 4
Description: (§1) TNF-α production was then measured. The data shown are mean ±SD of triplicate wells in experiments that were repeated twice.
It has been shown that the macrophage is an abundant source of MIF (Calandra et al., 1994), which is released after LPS stimulation. This led to an examination of the autocrine and paracrine activity of secreted MIF in vitro.

MIF [5] = molecular target: T1, MIF; experiment: MIF glucocorticoid-regulating (proinflammatory) activity in LPS-treated macrophages, TNF-α production; type: cell-based; set-up: dexamethasone plus MIF (3 nM purified native MIF); host or cells: added to monocyte-derived macrophages from human peripheral blood
Description: as §1

CLP sepsis = experiment: cecal ligation and puncture (CLP) sepsis survival; type: in vivo; details: mice, intraperitoneal, first injection 24 hours after CLP, further injections day 2 and 3, FIG. 6
Description: FIG. 6 is a graph showing that Cyc-Oxi-II is protective even when given 24 h after the induction of sepsis.
An additional two injections were given, on day 2 and day 3. Thirteen mice were tested.

[6] = Table 2, additional MIF inhibitors, read-out: IC50 MIF inhibitory activity in vitro
[7] = Table 1, left column pair, read-out: IC50 inhibition of MIF tautomerase activity

- IC50 (MIF [1]; [6]): 60 µM
SMILES: CC(C)(C)OC(=O)NNC(=O)C1CCCCC1 [BKII-90]

- IC50 (MIF [1]; [6]): 69 µM
SMILES: CC(C)(C)OC(=O)NOC(=O)c1ccc(C(F)(F)F)cc1 [BKIII-9W]

- IC50 (MIF [1]; [6]): 0.37 µM
SMILES: CC(C)(C)OC(=O)NOC(=O)C1CCC1 [BKII-92]

- IC50 (MIF [1]; [6]): 19.5 µM
SMILES: CC(C)(C)OC(=O)NOC(=O)C1CCCCC1 [BKII-85]

- IC50 (MIF [1]; [7]): 12 µM
SMILES: O=C(O/N=C/c1ccc(O)cc1)C1CCC1

- IC50 (MIF [1]; [6]): 0.7 µM
SMILES: CC(C)(C)OC(=O)NOC(=O)C1CCCC1 [BKII-93]

- IC50 (MIF [1]; [6]): 50 µM
SMILES: CC(C)(C)OC(=O)NOC(=O)c1ccc(OC(=O)c2ccc(O)cc2)cc1 [BKIII-6Y]

- IC50 (MIF [1]; [6]): 0.87 µM
SMILES: CC(C)(C)OC(=O)NOC(=O)c1ccc(Cl)cc1 [BKIII-8Y]

- IC50 (MIF [1]; [6]): 0.23 µM
SMILES: CC(C)(C)OC(=O)NOC(=O)c1ccccc1 [BKII-98]

- IC50 (MIF [1]; [6]): 118 µM
SMILES: CC(C)(C)OC(=O)NOC(=O)c1c(F)c(F)c(F)c(F)c1F [BKIII-6W]

- IC50 (MIF [1]; [6]): 1.3 µM
SMILES: CC(C)(C)OC(=O)NOC(=O)c1ccc(Br)cc1 [BKIII-11Y]

SMILES: COC(=O)C[C@@H]1CC(c2ccc(O)cc2)=NO1 (racemic) [ISO-1, (S,R)-3-(4-hydroxyphenyl)-4,5-dihydro-5-isoxazole acetic acid methyl ester]
- survival rate (endotoxemia and sepsis): increased the survival rate
- inhibition of TNF release [2]: 60%

- IC50 (MIF [1]; read-out: IC50 of MIF dopachrome tautomerase activity): 1.1 µM
SMILES: COc1ccc(C(=O)ON=Cc2ccc(O)cc2)cc1 [Compound 4]

SMILES: O=C(O/N=C/c1ccc(O)cc1)C1CCCCC1 [Cyc-Oxi-11, (E)-4-hydroxybenzaldehyde O-cyclohexanecarbonyloxime]
- potency versus ISO-1 in MIF tautomerase inhibition (MIF [1]; relative to ISO-1): 30 fold
- antibacterial effect (antibacterial effect): negative
- acute toxicity, intraperitoneal injection ([3]; doses up to 100 mg/Kg): no evidence of toxicity
- toxicity at high doses ([3]; high doses, both in vitro and in vivo): lacks obvious toxicity
- inhibition of TNF release [4]: inhibits TNF release in vitro; also recorded: in a dose-dependent manner, inhibits TNF release; also recorded: inhibits MIF induction of TNF release
- inhibition of MIF-dependent interference with glucocorticoids (MIF [5]; LPS-stimulated human macrophages, FIG. 3): significantly inhibited; also recorded: suppresses the ability of MIF to regulate glucocorticoids
- potency versus ISO-1 as inhibitor of MIF proinflammatory activity in vitro (MIF [5]; relative to ISO-1): 30 fold
- deaths / protection after CLP (CLP sepsis): considerably reduced the deaths caused by CLP
- deaths / protection after CLP (CLP sepsis; listed as Cyc-Oxi-II): protective

- IC50 (MIF [1]; [6]): 1.2 µM
SMILES: COc1ccc(C(=O)ONC(=O)OC(C)(C)C)cc1 [BKII-99]

- IC50 (MIF [1]; [6]): 1.7 µM
SMILES: CC(C)(C)OC(=O)NOC(=O)c1ccc(I)cc1 [BKIII-9Y]

- IC50 (MIF [1]; [6]): 1.9 µM
SMILES: CC(C)(C)OC(=O)NOC(=O)C1CC1 [BKII-91]

- improvement of inhibition of dopachrome tautomerase activity over parent compound (MIF [1]; mono-fluorinated analogue versus parent): 63%
SMILES: COc1ccc(OC(=O)O/N=C/c2ccc(O)c(F)c2)cc1 [Compound 5, (E)-3-fluoro-4-hydroxybenzaldehyde O-4′-methoxyphenyl carbonyloxime]

- IC50 (MIF [1]; [6]): 0.27 µM
SMILES: CC(C)(C)OC(=O)NOC(=O)c1ccc(F)cc1 [BKIII-8W]

- IC50 (MIF [1]; [7]): 4.8 µM
SMILES: O=C(O/N=C/c1ccc(O)cc1)C1CCCC1
